Measured values taken from US7687494B2, “Substituted spirobenzazepines” (Janssen Pharmaceutica NV, priority 2003, dated 2010).

Columns and labels:
human V1a receptor [1] = molecular target: T1, human V1a receptor (Homo sapiens, UniProt P37288); assay: V1a vasopressin receptor functional activity (intracellular calcium mobilization, FLIPR, V1a-HEK cells); format: cell-based; details: V1a (first value of V1a/V2); vasopressin-challenged transfected HEK-293 cells
Experimental: The V1a receptor is a G-protein coupled receptor, which upon activation triggers an increase in intracellular calcium mobilization. To evaluate compounds for their functional V1a receptor activity, HEK-293 cells were transfected with the human V1a receptor (V1a-HEK cells). HEK-293 cells were grown in DMEM (Dulbecco's modified Eagle Media) supplemented with 10% FBS and glutamine. HEK-cells were passed biweekly by trypsinization and seeded into 96 well plates at 33,000 cells per well. HEK-293 cells were transfected with human V1a receptor DNA using DMRIE-C reagent from Life Technologies (Carlsbad, Calif.). Stable lines were generated by selecting cells grown in culture media containing geneticin. After growing in Packard Clear-View black 96 well plates for 4-6 days, V1a-HEK cells were loaded with the calcium-sensitive fluorescence dye, FLUO-3 AM. Changes in intracellular calcium mobilization were measured by quantitating intracellular fluorescence using FLIPR (Fluorometric Imaging Plate Reader; Molecular Devices, Sunnyvale, Calif.). Test compounds were first added to the cells and the resulting changes in fluorescence measured to detect receptor agonistic activity. Five minutes later the cells were challenged with vasopressin to test compounds for their antagonistic activity. Receptor antagonists inhibit the ability of vasopressin to stimulate increases in intracellular fluorescence. IC50's were calculated.

human V2 receptor [2] = molecular target: T2, human V2 receptor (Homo sapiens, UniProt P30518); assay: In-vitro binding assay, 3H-arginine-8-vasopressin, V2 membranes; details: V2 (second value of V1a/V2)
Experimental: (§1) Assay buffer is 50 mM Tris-Cl, 5 mM MgCl2, 0.1% BSA (pH 7.5) containing 5 μg/ml of aprotinin, leupeptin, pepstatin, 50 μg/ml bacitracin, and 1 mM Pefabloc (4-(2-Aminoethyl)-benzenesulfonyl fluoride, hydrochloride manufactured by Roche Diagnostics Corporation, Indianapolis, Ind. and distributed by Boehringer Mannheim). H3 vasopressin is ^3H-arginine-8-vasopressin (NEN Life Sciences, Boston, Mass.; 68.5 Ci/mmol, final concentration in assay is 0.65-0.75 nM). Into wells of 96-well round bottom polypropylene plates are added buffer, test compound, membrane (containing human V1a or V2 receptor), and H3 vasopressin. The reaction plates are allowed to sit at room temperature for one hour. The samples are filtered through Unifilter GF/C plates (PerkinElmer Life Sciences, Boston, Mass.) presoaked in 0.3 polyethyleneimine. The plates are washed 5 times with cold physiological saline containing 0.05% Tween 20. After drying, the bottom of the filter plates are sealed and 0.025 ml of Microscint-20 (Packard Instrument Co, Meriden, Conn.) is added to each filter. The top of the plate is sealed, and the plate is counted. Non-specific binding is determined by the addition of 1.25 μM arginine-8-vasopressin in those wells. % Inh. is calculated
(§2) [formula] as follows: (B) V1a Vasopressin Receptor Functional Activity

human V1a receptor [3] = molecular target: T1, human V1a receptor; assay: In-vitro binding assay, 3H-arginine-8-vasopressin, V1a membranes; details: V1a (first value of V1a/V2)
Experimental: as §1, §2

human V2 receptor [4] = molecular target: T2, human V2 receptor; assay: V2 vasopressin receptor functional activity (cAMP accumulation, V2-HEK cells); format: cell-based; set-up: expressed in transfected cells; host or cells: HEK-293; details: V2 (second value of V1a/V2); vasopressin-stimulated cAMP in transfected HEK-293 cells
Experimental: The V2 receptor is also a G-protein coupled receptor which when activated induces an increase in cAMP turnover. Antagonism against the V2 receptor is determined by measuring cAMP accumulation in transfected HEK-293 cells expressing the human V-2 receptor (V2-HEK cells). Compounds are tested for their ability to block the stimulatory effects of vasopressin on cAMP accumulation. The cell content of cAMP is measured by radioimmunoassay using NEN flashplates.

T1 sequence (P37288 whole entry): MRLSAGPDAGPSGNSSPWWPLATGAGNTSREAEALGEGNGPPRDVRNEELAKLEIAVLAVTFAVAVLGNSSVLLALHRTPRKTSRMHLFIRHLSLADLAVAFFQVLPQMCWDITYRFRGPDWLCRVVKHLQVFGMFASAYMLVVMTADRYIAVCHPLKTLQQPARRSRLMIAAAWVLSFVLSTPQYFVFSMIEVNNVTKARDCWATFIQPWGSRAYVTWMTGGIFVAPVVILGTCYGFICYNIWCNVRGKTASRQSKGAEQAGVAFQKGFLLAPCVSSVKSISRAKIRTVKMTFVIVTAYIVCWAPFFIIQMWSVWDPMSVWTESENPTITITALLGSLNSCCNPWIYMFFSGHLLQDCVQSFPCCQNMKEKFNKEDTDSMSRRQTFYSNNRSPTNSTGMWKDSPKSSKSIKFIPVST
T2 sequence (P30518 whole entry): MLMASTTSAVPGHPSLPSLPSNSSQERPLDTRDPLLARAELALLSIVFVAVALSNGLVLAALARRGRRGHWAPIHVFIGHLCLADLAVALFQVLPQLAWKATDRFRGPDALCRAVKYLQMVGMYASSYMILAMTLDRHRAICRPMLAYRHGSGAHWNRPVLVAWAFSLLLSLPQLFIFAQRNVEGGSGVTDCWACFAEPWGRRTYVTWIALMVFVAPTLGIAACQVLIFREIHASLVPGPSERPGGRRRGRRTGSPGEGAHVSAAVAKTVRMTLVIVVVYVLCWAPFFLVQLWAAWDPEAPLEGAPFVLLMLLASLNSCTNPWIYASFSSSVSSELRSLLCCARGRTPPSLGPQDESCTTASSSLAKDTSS

Row | IC50 (human V1a receptor [1]) [µM] | IC50 (human V2 receptor [2]) [µM] | IC50 (human V1a receptor [3]) [µM] | IC50 (human V2 receptor [4]) [µM] | Structure (SMILES)
1 | 0.004 | 0.011 | 0.005 |  | CN(C)CCNC(=O)C1=CC2(CC1)CCN(C(=O)c1ccc(NC(=O)c3ccccc3-c3ccccc3)cc1)c1ccccc1C2 (racemic) [A, 4-(2-phenylbenzoyl-4-aminobenzoyl)-3′-[2-(N,N-dimethylaminoethylcarbony)]-4-aza-[6,4]-spiro-[5,6]-benzoundec-2′-ene, reference compound]
2 | 0.038 | 0.03 | 0.005 | 0.052 | COc1cc(C(=O)N2CC[C@]3(C=C(C(=O)O)CC3)Cc3ccccc32)ccc1NC(=O)c1cc(F)ccc1Cl [Compound 29, (R)-4-(2-Chloro-5-fluorobenzoyl-3-methoxy-4-aminobenzoyl)-4-aza-3′-(carboxy)-[6,4]-spiro-[5,6]-benzoundec-2′-ene]
3 | 0.05 | 0.071 | 0.008 | 0.15 | CCOc1cc(C(=O)N2CC[C@]3(C=C(C(=O)O)CC3)Cc3ccccc32)ccc1NC(=O)c1cc(F)ccc1Cl [Compound 31, (R)-4-(2-Chloro-5-fluorobenzoyl-3-ethoxy-4-aminobenzoyl)-4-aza-3′-carboxy-[6,4]-spiro-[5,6]-benzoundec-2′-ene]
4 | 0.38 | 0.053 | 0.013 | 0.1 | O=C(O)C1=C[C@@]2(CC1)CCN(C(=O)c1ccc(NC(=O)c3cc(F)ccc3Cl)cc1)c1ccccc1C2 [reference compound]
